Tests used:
[1] = tested on: RKO cells; test: Western blot analysis in RKO colorectal cancer cells; assay type: cell-based, human
Protocol: FIG. 5. Various cancer cells were treated for 24 h as shown and tested by Western blot analysis.
(D) Inhibition of HDAC6 protects it from degradation by the addition of a pro-apoptotic agent (staurosporine, ST).
The total amount of vinculin serves as a loading control; Proof of tubulin acetylation serves as proof of the treatment accuracy. The loss of the caspase-3 corresponds to the induction of apoptosis (programmed cell death).
Human colon cancer cell lines RKO (ATCC Accession No: CRL-2577) and HCT-116 (DSMZ Accession No: ACC-581).
The assay is carried out as described in Buchwald et al. 2010 and Buchwald et al. 2013. Briefly, cells were collected and lysed in NET-N buffer (150 mM NaCl, 1 mM EDTA, 50 mM Tris-HCl (pH 7.8), 0.5% Nonidet P-40 (NP-40), 1 mM phenylmethylsulfonyl fluoride, 0.5 mg/ml leupeptin and 0.5 mg/ml pepstatin) followed by mild sonification on ice. Protein lysate ([…]) was boiled in Laemmli buffer and separated on SDS-polyacrylamide gel electrophoresis for western blotting with specific antibodies. All lysates were assessed by Bradford assay for protein concentrations.

[2] = tested on: MV4-11, BV173 and HCT116 cells; test: Dose and time dependency of MARB1, Western blot method b; assay type: cell-based, human; details: 50 nM
Protocol: Cells were seeded on a 6 well plate and incubated as shown. The blots were quantified with Image Studio Lite Version 5.0. (A) 1 Mio cells per sample were seeded and after 2 h adaption time the cells were stimulated as shown, followed by incubation and harvesting of the cells. Tubulin and HSP90 were used as loading control. […] HSP90 and Tubulin were used as loading control. n=1 (C) 200,000 cells were seeded in a 6 well plate and incubated over night for adhesion. B-Actin was used as loading control. n=1
For the examination of the time dependency of MARB1 MV4-11, BV173 and HCT116 cells were tested by western blot. All cells were seeded on a 6 well plate. The blots were quantified with Image Studio Lite Version 5.0. (A) 1 Mio cells per sample were seeded and after 2 h adaption time the cells were stimulated as shown. Following the incubation, the cells were harvested as described earlier. Tubulin and HSP90 were used as loading control. […] HSP90 was used as loading control. […]
Western Blot analysis method b was used for the blots illustrated in FIGS. 6 to 9 and 11: Equal amounts of proteins were separated with a sodium dodecyl sulfate-polyacrylamide gel electrophoresis (SDS-PAGE) using an electrophoresis buffer by Laemmli with 1% SDS. […] Fluorescence coupled secondary antibodies (LI-COR) were used and the signal was measured on the Odyssey to detect the proteins.

[3] = tested on: nuclear proteins; test: Nuclear extracts versus cytoplasm after MARB1 stimulation, Western blot; assay type: cell-based
Protocol: Nuclear extracts were generated and compared to the cytoplasm by western blotting. 6 Mio cells were seeded on a 10 cm dish and incubated 2 h in the medium for adaption. SAHA and […] are pan-HDACi. HSP90 was used as a loading control for the cytoplasm. n=2
SDS-PAGE and Western Blot Analysis Method b
Western Blot analysis method b was used for the blots illustrated in FIGS. 6 to 9 and 11: Equal amounts of proteins were separated with a sodium dodecyl sulfate-polyacrylamide gel electrophoresis (SDS-PAGE) using an electrophoresis buffer by Laemmli with 1% SDS. The proteins were transferred to a nitrocellulose membrane by western blotting using a wet blot chamber. The blots were incubated with the primary antibody, after blocking the membrane for 1 h in 5% non-fat dry milk in tris-buffered saline (TBS) containing 0.05% Tween-20. Fluorescence coupled secondary antibodies (LI-COR) were used and the signal was measured on the Odyssey to detect the proteins.
The cells for nuclear extracts were harvested on ice after stimulation and washed with cold PBS. The pellet was resuspended in lysis buffer A (10 mM HEPES pH 7.9, 1.5 mM MgCl2, 10 mM KCl, 1 mM DTT and protease and phosphatase inhibitor) and incubated for 15 min on ice followed by addition of NP-40 to a final concentration of 1%. […] The protein level was assessed by Bradford assay (Goder et al. 2015).

[4] = tested on: PRXF LNCaP; test: In vitro activity against solid tumor cell lines (FACS analysis method a); assay type: cell-based; details: Homo sapiens, Prostate
Protocol: (§1) Human prostate cancer cell lines PRXF DU-145, PRXF LNCaP, PRXF PC-3M (Oncotest GmbH, Freiburg, Germany)
(§2) The assay is carried out as described in Pietschmann et al., 2012 and Brandl et al. 2012. Briefly, 10^5 cells were fixed in 1 ml 70% EtOH with 0.05% Tween-20 overnight at 4° C. The following day, cells were washed with 3 ml 38 mM sodium citrate, pH 7.4, and incubated for 20 min at 37° C. in 0.5 ml 38 mM sodium citrate, pH 7.4, supplemented with 50 μg/ml propidium iodide and 10 μg/ml RNase-A. DNA contents of the cells were measured by fluorescence-activated cell sorter (FACS). This method allows detection of the apoptotic subG1-fraction, which has a DNA content below 2n due to apoptotic cleavage of DNA. Equally, the cell cycle profile can be assessed with this method.
(§3) The novel HDAC6 inhibitors were tested in a panel of tumor cell lines for cytostatic/toxic activities (see Table 2).

[5] = tested on: PRXF DU-145; test: as above; assay type: cell-based; details: Homo sapiens, Prostate
Protocol: as §1, §2, §3

[6] = tested on: PRXF PC-3M; test: as above; assay type: cell-based; details: Homo sapiens, Prostate
Protocol: as §1, §2, §3

[7] = tested on: BV-173 cells; test: Flow cytometric analysis of BV-173 cells, combination with imatinib; assay type: cell-based, human; details: BV-173, 1 μM MARB1 or 2 μM MARB2 combined with 0.2 or 0.5 μM imatinib, 48 h
Protocol: Flow cytometric analysis of the induction of (A) apoptotic DNA fragmentation and (B) Cell cycle analysis of BV 173 cells. The cells were kept as control cells (Ctl), treated with 1 μM or 2 μM MARB1 MARB2 and 0.2 or 0.5 μM imatinib for 48 h. The data was received by two independent experiments. The individual compounds show only slight effects in the used concentrations; whereas their combination can effectively kill leukemic cells. (C) Western blot analysis on data from the BCR-ABL, acetylated tubulin and α-sliced PARP1; the total amount of tubulin-α serves as a loading control. BV-173 cells were treated for 24 h with 1 μM, or 2 μM MARB1 or MARB2.
Human leukemia cell lines BV 173 and K562 with BCR-ABL mutation (Leibniz Institute DSMZ—German Collection of Microorganisms and Cell Cultures, DSMZ Accession Nos: ACC-20 and ACC-10).
as §2, with “This method allows detection of the apoptotic subG1-fraction, which has a DNA content below 2n due to apoptotic cleavage of DNA.” left out

CN1C(=O)C2CN(Cc3c2c2ccccc2n3Cc2ccc(C(=O)NO)cc2)C1=O (stereo not drawn) [MARB1, N-Hydroxy-4-((4-methyl-3,5-dioxo-3,4,5,6-tetrahydro-2,6-methano[1,3]diazocino[5,6-b]indol-11(1H)-yl)methyl)benzamide]
hyperacetylation of tubulin ([1]; 0.5 μM, 24 h): sufficient to induce hyperacetylation of tubulin
HDAC6 loss in staurosporin (ST)-treated cells ([1]; with staurosporine): protects ST-treated RKO cells
acetylated tubulin ([2]; incubation for 30 min): increase of acetylated tubulin is detectable
inhibition compared with Tubastatin A ([2]; short time course): faster and at later time points much more effective than Tubastatin A
effects on nuclear proteins [3]: no detectable effects
IC50 [4]: 1620 nM
IC50 [5]: 2340 nM
IC50 [6]: 5140 nM
apoptotic and necrotic sub-G1 populations [7]: significantly increases

— US10106540B2, “HDAC6 inhibitors and their uses” (Universität Regensburg, priority 2014, dated 2018)
